pIC50: −log10 of the molar value.

For one test, the target named is KRAS G12C (Homo sapiens, UniProt P01116, G12C). As to the kind of experiment: GDP-GTP exchange assay (fluorescence based guanine nucleotide exchange, bodipy-GDP for GppNHp, SOS1). The conditions noted are these: bodipy-loaded KRAS G12C, 2 hours pre-incubation with inhibitor, read-out: G12C_exchange (KRAS_G12C exchange assay IC50). Type of test: biochemical. The method, then:
The inhibitor potency of the exemplified compounds was determined in a fluorescence based guanine nucleotide exchange assay, which measures the exchange of bodipy-GDP (fluorescently labeled GDP) for GppNHp (Non-hydrolyzable GTP analog) to generate the active state of KRAS in the presence of SOS1 (guanine nucleotide exchange factor). Inhibitors were serially diluted in DMSO and a volume of 0.1 μL was transferred to the wells of a black low volume 384-well plate. 5 μL/well volume of bodipy-loaded KRAS G12C diluted to 5 nM in assay buffer (25 mM Hepes pH 7.5, 50 mM NaCl, 10 mM MgCl2 and 0.01% Brij-35) was added to the plate and pre-incubated with inhibitor for 2 hours at ambient temperature. Appropriate controls (enzyme with no inhibitor or with a G12C inhibitor (AMG-510)) were included on the plate. The exchange was initiated by the addition of a 5 μL/well volume containing 1 mM GppNHp and 300 nM SOS1 in assay buffer. The 10 μL/well reaction concentration of the bodipy-loaded KRAS G12C, GppNHp, and SOS1 were 5-25 nM, 500 uM, and 150 nM, respectively. The reaction plates were incubated at ambient temperature for 2 hours, a time estimated for complete GDP-GTP exchange in the absence of inhibitor. For the KRAS G12D and G12V mutants, similar guanine nucleotide exchange assays were used with 2.5 nM as final concentration for the bodipy loaded KRAS proteins and with 4 hours and 3 hours incubation after adding GppNHp-SOS1 mixture for G12D and G12V, respectively. A cyclic peptide described to selectively bind G12D mutant (Sakamoto et al., BBRC 484.3 (2017), 605-611) or internal compounds with confirmed binding were used as positive controls in the assay plates. Fluorescence intensities were measured on a PheraStar plate reader instrument (BMG Labtech) with excitation at 485 nm and emission at 520 nm.
Either GraphPad prism or XLfit was used to analyze the data. The IC50 values were derived by fitting the data to a four parameter logistic equation producing a sigmoidal dose-response curve with a variable Hill coefficient. Prism equation: Y=Bottom+(Top−Bottom)/(1+10^((Log IC50−X)*Hill slope)); XLfit equation: Y=(A+((B−A)/(1+((X/C)^D)))) where X is the logarithm of inhibitor concentration and Y is the response.

In test [1] the test system is MIA PaCa-2 (KRAS G12C) cells. The test can be described thus: Cellular pERK HTRF assay. Type of test: cell-based. The conditions noted are these: Homo sapiens; MIA PaCa-2 cells, 4 hours, phospho-ERK 1/2 HTRF; read-out: G12C_pERK (KRAS_G12C pERK assay IC50). The method, then:
MIA PaCa-2 (KRAS G12C; ATCC® CRL-1420), A427 (KRAS G12D; ATCC® HTB53), HPAF-II (KRAS G12D; ATCC® CRL-1997) and NCI-H838 (KRAS WT; ATCC® CRL-5844) cells are purchased from ATCC and maintained in RPMI 1640 media supplemented with 10% FBS (Gibco/Life Technologies). The cells are plated at 5000 cells per well (8 uL) into Greiner 384-well low volume, flat-bottom, tissue culture treated white plates and incubated overnight at 37° C. 5% CO2. The next morning, test compound stock solutions are diluted in media at 3× the final concentration, and 4 uL are added to the cells. The plate is mixed by gentle rotation for 30 seconds (250 rpm) at room temperature. The cells are incubated with the KRAS G12C and G12D compounds for 4 hours or 2 hours respectively at 37° C., 5% CO2.
4 uL of 4× lysis buffer with blocking reagent (1:25) (Cisbio) are added to each well and plates are rotated gently (300 rpm) for 30 minutes at room temperature. 4 uL per well of Cisbio anti Phospho-ERK 1/2 d2 is mixed with anti Phospho-ERK 1/2 Cryptate (1:1) are added to each well, mixed by rotation and incubated overnight in the dark at room temperature. Plates are read on the Pherastar plate reader at 665 nm and 620 nm wavelengths. IC50 determination is performed by fitting the curve of inhibitor percent inhibition versus the log of the inhibitor concentration using the GraphPad Prism 7 software.

Chain of KRAS G12C (P01116 1-188 isoform P01116-2 G12C): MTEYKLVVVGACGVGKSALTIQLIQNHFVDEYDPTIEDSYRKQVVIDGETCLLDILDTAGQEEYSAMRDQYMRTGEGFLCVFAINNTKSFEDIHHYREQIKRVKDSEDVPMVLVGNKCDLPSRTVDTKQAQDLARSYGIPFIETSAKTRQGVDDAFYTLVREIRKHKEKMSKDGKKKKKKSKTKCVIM

Consider `C=CC(=O)N1CC(F)(Cn2c(=O)c(=O)n(-c3c(C)ccnc3C(C)C)c3nc(-c4c(N)cccc4F)c(Cl)cc32)C1` [Example 19, 1-((1-acryloyl-3-fluoroazetidin-3-yl)methyl)-6-(2-amino-6-fluorophenyl)-7-chloro-4-(2-isopropyl-4-methylpyridin-3-yl)-1,4-dihydropyrido[2,3-b]pyrazine-2,3-dione], for which the pIC50 (on KRAS G12C; in test [1]) was at least 7.00 throughout.

Turning to `C=C(F)C(=O)N1CC(F)(Cn2c(=O)c(=O)n(-c3c(C(C)C)cccc3C(C)C)c3nc(-c4c(O)cccc4F)c(Cl)cc32)C1` [Example 13, 7-chloro-4-(2,6-diisopropylphenyl)-1-((3-fluoro-1-(2-fluoroacryloyl)azetidin-3-yl)methyl)-6-(2-fluoro-6-hydroxyphenyl)-1,4-dihydropyrido[2,3-b]pyrazine-2,3-dione], the pIC50 (at KRAS G12C; in test [1]) was at least 7.00 throughout.

Consider `C=CC(=O)N1CC(F)(Cn2c(=O)c(=O)n(-c3c(C)ccnc3C(C)C)c3nc(-c4c(O)cccc4F)c(Cl)cc32)C1` [Example 17, 1-((1-acryloyl-3-fluoroazetidin-3-yl)methyl)-7-chloro-6-(2-fluoro-6-hydroxyphenyl)-4-(2-isopropyl-4-methylpyridin-3-yl)-1,4-dihydropyrido[2,3-b]pyrazine-2,3-dione], for which the pIC50 (on KRAS G12C; in test [1]) was at least 7.00 throughout.

Regarding `C=CC(=O)N1CC(F)(Cn2c(=O)c(=O)n(-c3c(C(C)C)cccc3C(C)C)c3nc(-c4ccccc4F)c(Cl)cc32)C1` [Example 10, 1-((1-acryloyl-3-fluoro-azetidin-3-yl)methyl)-7-chloro-4-(2,6-diisopropylphenyl)-6-(2-fluorophenyl)-1,4-dihydropyrido[2,3-b]pyrazine-2,3-dione], the negative-log IC50 (pIC50) on KRAS G12C was at least 7.00; in test [1] it was 6.00 to 7.00.

As to `C=CC(=O)N1CC(F)(Cn2c(=O)c(=O)n(-c3c(C)ccnc3C(C)C)c3nc(-c4ccccc4F)c(Cl)cc32)C1` [Example 18, 1-((1-acryloyl-3-fluoroazetidin-3-yl)methyl)-7-chloro-6-(2-fluorophenyl)-4-(2-isopropyl-4-methylpyridin-3-yl)-1,4-dihydropyrido[2,3-b]pyrazine-2,3-dione], the pIC50 (at KRAS G12C; in test [1]) was at least 7.00 in each case.

On to `C=CC(=O)N1CC(Cn2c(=O)c(=O)n(-c3c(C)ccnc3C(C)C)c3nc(-c4c(O)ccc(F)c4F)c(Cl)cc32)(OC)C1` [Example 39, 1-((1-acryloyl-3-methoxyazetidin-3-yl)methyl)-7-chloro-6-(2,3-difluoro-6-hydroxyphenyl)-4-(2-isopropyl-4-methylpyridin-3-yl)-1,4-dihydropyrido[2,3-b]pyrazine-2,3-dione], for which the pIC50 (at KRAS G12C; in test [1]) was 6.00 to 7.00 in each case.

Consider `C=CC(=O)N1CC(F)(Cn2c(=O)c(=O)n(-c3c(C)ccnc3C(C)C)c3nc(-c4ccccc4Cl)c(Cl)cc32)C1` [Example 36, 1-((1-acryloyl-3-fluoroazetidin-3-yl)methyl)-7-chloro-6-(2-chlorophenyl)-4-(2-isopropyl-4-methylpyridin-3-yl)-1,4-dihydropyrido[2,3-b]pyrazine-2,3-dione], for which the pIC50 (at KRAS G12C; in test [1]) was at least 7.00 in each case.

On to `C=CC(=O)N1CC(F)(Cn2c(=O)c(=O)n(-c3c(C)ccnc3C(C)C)c3nc(-c4cccc(Cl)c4Cl)c(Cl)cc32)C1` [Example 35, 1-((1-acryloyl-3-fluoroazetidin-3-yl)methyl)-7-chloro-6-(2,3-dichlorophenyl)-4-(2-isopropyl-4-methylpyridin-3-yl)-1,4-dihydropyrido[2,3-b]pyrazine-2,3-dione], for which the negative-log IC50 (pIC50) (on KRAS G12C; in test [1]) was at least 7.00 each time.

In the case of `C=CC(=O)N1CC(Cn2c(=O)c(=O)n(-c3c(C(C)C)cccc3C(C)C)c3nc(-c4ccccc4F)c(Cl)cc32)(OC)C1` [Example 8, 1-((1-acryloyl-3-methoxy-azetidin-3-yl)methyl)-7-chloro-4-(2,6-diisopropylphenyl)-6-(2-fluorophenyl)-1,4-dihydropyrido[2,3-b]pyrazine-2,3-dione], the negative-log IC50 (pIC50) (on KRAS G12C; in test [1]) was 6.00 to 7.00 in each case.

`C=CC(=O)N1CC(O)(Cn2c(=O)c(=O)n(-c3c(C(C)C)cccc3C(C)C)c3nc(-c4ccccc4F)c(Cl)cc32)C1` [Example 7, 1-((1-acryloyl-3-hydroxy-azetidin-3-yl)methyl)-7-chloro-4-(2,6-diisopropylphenyl)-6-(2-fluorophenyl)-1,4-dihydropyrido[2,3-b]pyrazine-2,3-dione]: the negative logarithm of the IC50 (pIC50) at KRAS G12C was at least 7.00; in test [1], 6.00 to 7.00.

Take `C=CC(=O)N1CC(F)(Cn2c(=O)c(=O)n(-c3c(C)ccnc3C(C)C)c3nc(-c4cccc5c(C)n[nH]c45)c(Cl)cc32)C1` [Example 27, 1-((1-acryloyl-3-fluoroazetidin-3-yl)methyl)-7-chloro-4-(2-isopropyl-4-methylpyridin-3-yl)-6-(3-methyl-1H-indazol-7-yl)-1,4-dihydropyrido[2,3-b]pyrazine-2,3-dione]: the pIC50 (on KRAS G12C; in test [1]) was 6.00 to 7.00 each time.

Consider `C=CC(=O)N1CC(Cn2c(=O)c(=O)n(-c3c(C)ccnc3C(C)C)c3nc(-c4c(O)cccc4F)c(Cl)cc32)(OC)C1` [Example 38, 1-((1-acryloyl-3-methoxyazetidin-3-yl)methyl)-7-chloro-6-(2-fluoro-6-hydroxyphenyl)-4-(2-isopropyl-4-methylpyridin-3-yl)-1,4-dihydropyrido[2,3-b]pyrazine-2,3-dione], for which the negative-log IC50 (pIC50) (on KRAS G12C; in test [1]) was 6.00 to 7.00 each time.

For `C=CC(=O)N1CC(F)(Cn2c(=O)c(=O)n(-c3c(C(C)C)cccc3C(C)C)c3nc(-c4cc(O)cc5ccccc45)c(Cl)cc32)C1` [Example 14, 1-((1-acryloyl-3-fluoroazetidin-3-yl)methyl)-7-chloro-4-(2,6-diisopropylphenyl)-6-(3-hydroxynaphthalen-1-yl)-1,4-dihydropyrido[2,3-b]pyrazine-2,3-dione], the pIC50 (at KRAS G12C; in test [1]) was at least 7.00 throughout.

In the case of `C=CC(=O)N1CC(F)(Cn2c(=O)c(=O)n(-c3c(C(C)C)cccc3C(C)C)c3nc(-c4cccc5ccccc45)c(Cl)cc32)C1` [Example 11, 1-((1-acryloyl-3-fluoroazetidin-3-yl)methyl)-7-chloro-6-(1-naphthyl)-4-(2,6-diisopropylphenyl)-1,4-dihydropyrido[2,3-b]pyrazine-2,3-dione], the pIC50 at KRAS G12C was at least 7.00; in test [1], 6.00 to 7.00.

`C=CC(=O)N1CC(F)(Cn2c(=O)c(=O)n(-c3c(C)ccnc3C(C)C)c3nc(-c4c(F)ccc(Cl)c4O)c(Cl)cc32)C1` [Example 24, 1-((1-acryloyl-3-fluoroazetidin-3-yl)methyl)-7-chloro-6-(3-chloro-6-fluoro-2-hydroxyphenyl)-4-(2-isopropyl-4-methylpyridin-3-yl)-1,4-dihydropyrido[2,3-b]pyrazine-2,3-dione]: the pIC50 (on KRAS G12C; in test [1]) was at least 7.00 in each case.

Turning to `C=CC(=O)N1CC(O)(Cn2c(=O)c(=O)n(-c3c(C)ccnc3C(C)C)c3nc(-c4c(O)cccc4F)c(Cl)cc32)C1` [Example 42, 1-((1-acryloyl-3-hydroxyazetidin-3-yl)methyl)-7-chloro-6-(2-fluoro-6-hydroxyphenyl)-4-(2-isopropyl-4-methylpyridin-3-yl)-1,4-dihydropyrido[2,3-b]pyrazine-2,3-dione], the pIC50 is at least 7.00 on KRAS G12C and 6.00 to 7.00 in test [1].

The record behind these values is patent US11767320B2, “Bicyclic dione compounds as inhibitors of KRAS” (INCYTE CORPORATION, priority 2020, dated 2023).
